Test results as given in the supplement of paper PMC10307832.

How the values were obtained:
Assay in all cases: relative viability (nuclei count vs DMSO), 5 days (fraction); higher = more cells survive
Afatinib + Bortezomib = compound: CN(C)C/C=C/C(=O)Nc1cc2c(Nc3ccc(F)c(Cl)c3)ncnc2cc1O[C@H]1CCOC1 [Afatinib] + CC(C)C[C@H](NC(=O)[C@H](Cc1ccccc1)NC(=O)c1cnccn1)B(O)O [Bortezomib] (partner 0.002 µM)
Outline: (§1)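 Lung cancer cell lines, seeded in 1536-well plates, were treated the following day by pin tool with a single drug or with five library-drug doses (not always all listed) in √10 steps on top of a fixed anchor-drug dose. Cells were fixed and nuclei stained in one step after 5 days, and nuclei were counted. Relative viability is the nuclei count for treated wells divided by that for vehicle wells, reported as medians of duplicate plates.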

Afatinib + Alpelisib = compound: CN(C)C/C=C/C(=O)Nc1cc2c(Nc3ccc(F)c(Cl)c3)ncnc2cc1O[C@H]1CCOC1 [Afatinib] + Cc1nc(NC(=O)N2CCC[C@H]2C(N)=O)sc1-c1ccnc(C(C)(C)C(F)(F)F)c1 [Alpelisib] (partner 2 µM)
Outline: as §1

Afatinib + Pemetrexed = compound: CN(C)C/C=C/C(=O)Nc1cc2c(Nc3ccc(F)c(Cl)c3)ncnc2cc1O[C@H]1CCOC1 [Afatinib] + Nc1nc2[nH]cc(CCc3ccc(C(=O)N[C@@H](CCC(=O)O)C(=O)O)cc3)c2c(=O)[nH]1 [Pemetrexed] (partner 0.2 µM)
Outline: as §1

Afatinib + Olaparib = compound: CN(C)C/C=C/C(=O)Nc1cc2c(Nc3ccc(F)c(Cl)c3)ncnc2cc1O[C@H]1CCOC1 [Afatinib] + O=C(c1cc(Cc2n[nH]c(=O)c3ccccc23)ccc1F)N1CCN(C(=O)C2CC2)CC1 [Olaparib] (partner 8 µM)
Outline: as §1

Cell Line	relative viability (Afatinib + Bortezomib; first compound 0.005 µM)	relative viability (Afatinib + Bortezomib; first compound 0.01581 µM)	relative viability (Afatinib + Bortezomib; first compound 0.05 µM)	relative viability (Afatinib + Bortezomib; first compound 0.1581 µM)	relative viability (Afatinib + Bortezomib; first compound 0.5 µM)	relative viability (Afatinib + Alpelisib; first compound 0.005 µM)	relative viability (Afatinib + Alpelisib; first compound 0.01581 µM)	relative viability (Afatinib + Alpelisib; first compound 0.05 µM)	relative viability (Afatinib + Alpelisib; first compound 0.1581 µM)	relative viability (Afatinib + Alpelisib; first compound 0.5 µM)	relative viability (Afatinib + Pemetrexed; first compound 0.005 µM)	relative viability (Afatinib + Pemetrexed; first compound 0.01581 µM)	relative viability (Afatinib + Pemetrexed; first compound 0.05 µM)	relative viability (Afatinib + Pemetrexed; first compound 0.1581 µM)	relative viability (Afatinib + Pemetrexed; first compound 0.5 µM)	relative viability (Afatinib + Olaparib; first compound 0.005 µM)	relative viability (Afatinib + Olaparib; first compound 0.01581 µM)	relative viability (Afatinib + Olaparib; first compound 0.05 µM)	relative viability (Afatinib + Olaparib; first compound 0.1581 µM)	relative viability (Afatinib + Olaparib; first compound 0.5 µM)
HCC-827	0.704	0.25	0.299	0.316	0.342	0.172	0.157	0.183	0.17	0.184	0.118	0.157	0.153	0.153	0.159	0.135	0.0842	0.145	0.158	0.142
HOP-62	0.69	0.723	0.731	0.915	0.724	0.977	0.599	1.14	1.08	0.689	0.305	0.302	0.328	0.338	0.292	0.624	0.329	0.606	0.439	0.423
LC-2-ad	1.01	1.03	1.06	0.991	1.19	0.892	0.441	0.819	0.687	0.784	0.275	0.273	0.259	0.28	0.274	0.752	0.754	0.724	0.707	0.701
LCLC-97TM1	0.733	0.646	0.648	0.463	0.619	0.175	0.286	0.313	0.184	0.211	0.17	0.187	0.191	0.21	0.152	0.424	0.351	0.348	0.273	0.397
LCLC-103H	1.01	1.09	1.05	0.929	1.12	0.806	1.09	0.997	0.939	1	0.485	0.478	0.514	0.492	0.48	0.743	0.744	0.764	0.682	0.773
LOU-NH91	0.465	0.416	0.48	0.519	0.502	0.494	0.492	0.537	0.501	0.523	0.371	0.424	0.393	0.433	0.418	0.701	0.704	0.701	0.687	0.742
LU99A	1.19	1.07	1.08	1.08	1.02	0.557	0.468	0.438	0.452	0.489	0.158	0.192	0.18	0.206	0.181	0.253	0.266	0.249	0.248	0.264
LXF-289	1.04	0.906	0.947	0.905	0.936	0.97	1.01	1.02	0.919	0.975	0.909	0.88	0.843	0.879	0.824	1.12	1.06	1.09	1.04	1.03
NCI-H23	0.951	0.948	0.995	0.901	0.904	0.771	0.735	0.725	0.636	0.561	0.667	0.609	0.586	0.704	0.567	0.331	0.303	0.37	0.291	0.333
NCI-H322M	0.721	1.03	0.663	0.563	0.512	0.666	0.519	0.495	0.384	0.335	0.563	0.534	0.523	0.531	0.509	0.743	0.573	0.559	0.559	0.531
NCI-H441	0.59	0.642	0.864	0.632	0.313	0.831	0.763	0.751	0.581	0.626	0.255	0.246	0.25	0.283	0.274	0.491	0.521	0.649	0.441	0.512
NCI-H460	1.34	1.1	1.09	1.1	0.997	0.52	0.509	0.484	0.543	0.349	0.0534	0.0601	0.0633	0.0503	0.0638	0.373	0.407	0.439	0.458	0.491
NCI-H520	0.712	0.634	0.748	0.579	0.614	1.07	0.903	1.02	1.01	0.872	0.771	0.717	0.749	0.725	0.668	0.313	0.32	0.329	0.365	0.368
NCI-H596	1.15	1.18	1.11	0.766	1.01	0.542	0.512	0.528	0.385	0.538	0.537	0.492	0.504	0.548	0.489	0.706	0.707	0.697	0.58	0.685
NCI-H647	0.921	0.808	1.08	1.11	1	1.22	1.13	1.17	1.03	1.05	0.174	0.169	0.179	0.188	0.107	0.559	0.563	0.526	0.414	0.552
NCI-H650	1.07	0.802	0.957	0.949	0.597	1.23	1.11	1.14	1.25	1.06	0.922	0.849	0.951	0.854	0.87	0.339	0.429	0.441	0.407	0.399
